In ChEMBL document CHEMBL1201862, “PubChem BioAssay data set” (2004):
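1) Cells in 96-well plates. 2) Compound, 48 h, 5 concentrations. 3) Linear interpolation between surrounding doses. 4) Unreached endpoint = highest concentration. The concentration for 50% growth inhibition is given as GI50.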 Active and inactive are the calls of the source. Rule as the data show it: active = GI50 up to about 1.1 µM and inactive = higher.

Assays:
Test in all cases: growth of human tumour cells (NCI), 48 h
LOX IMVI = test system: LOX IMVI
HCT-116 = test system: HCT-116
SF-268 = test system: SF-268
A549 = test system: A549
OVCAR-3 = test system: OVCAR-3
DU-145 = test system: DU-145
SR = test system: SR
ACHN = test system: ACHN
HCT-15 = test system: HCT-15
MOLT-4 = test system: MOLT-4
SK-MEL-2 = test system: SK-MEL-2
MDA-MB-435 = test system: MDA-MB-435
PC-3 = test system: PC-3
OVCAR-4 = test system: OVCAR-4
IGROV-1 = test system: IGROV-1
OVCAR-5 = test system: OVCAR-5
NCI-H226 = test system: NCI-H226
SF-539 = test system: SF-539
HOP-92 = test system: HOP-92
HOP-62 = test system: HOP-62

SMILES: COc1cc2c(cc1OC)C(=O)N(c1ccc(OCCN3CCCC3)cc1)C2=O
- GI50 (LOX IMVI): > 100 µM (inactive)
- GI50 (HCT-116): > 100 µM (inactive)
- GI50 (SF-268): > 100 µM (inactive)
- GI50 (A549): > 100 µM (inactive)
- GI50 (OVCAR-3): > 100 µM (inactive)
- GI50 (DU-145): > 100 µM (inactive)
- GI50 (SR): > 100 µM (inactive)
- GI50 (ACHN): > 100 µM (inactive)
- GI50 (HCT-15): > 100 µM
- GI50 (MOLT-4): > 100 µM (inactive)
- GI50 (SK-MEL-2): > 100 µM (inactive)
- GI50 (MDA-MB-435): > 100 µM (inactive)
- GI50 (PC-3): > 100 µM (inactive)
- GI50 (OVCAR-4): > 100 µM (inactive)
- GI50 (IGROV-1): > 100 µM (inactive)
- GI50 (OVCAR-5): > 100 µM (inactive)
- GI50 (NCI-H226): > 100 µM (inactive)
- GI50 (SF-539): > 100 µM (inactive)
- GI50 (HOP-92): > 100 µM (inactive)
- GI50 (HOP-62): > 100 µM (inactive)

SMILES: COc1ccc(C(C)NNC(=O)c2ccncc2)cc1OC (stereo not given)
- GI50 (LOX IMVI): > 100 µM (inactive)
- GI50 (HCT-116): > 100 µM (inactive)
- GI50 (SF-268): > 100 µM (inactive)
- GI50 (A549): > 100 µM (inactive)
- GI50 (OVCAR-3): > 100 µM (inactive)
- GI50 (DU-145): > 100 µM (inactive)
- GI50 (SR): > 100 µM (inactive)
- GI50 (ACHN): > 100 µM (inactive)
- GI50 (HCT-15): > 100 µM
- GI50 (MOLT-4): > 100 µM (inactive)
- GI50 (SK-MEL-2): > 100 µM (inactive)
- GI50 (MDA-MB-435): > 100 µM (inactive)
- GI50 (PC-3): > 100 µM (inactive)
- GI50 (OVCAR-4): > 100 µM (inactive)
- GI50 (IGROV-1): > 100 µM (inactive)
- GI50 (OVCAR-5): > 100 µM (inactive)
- GI50 (NCI-H226): > 100 µM (inactive)
- GI50 (SF-539): > 100 µM (inactive)
- GI50 (HOP-92): > 100 µM (inactive)
- GI50 (HOP-62): > 100 µM (inactive)

SMILES: N=C1C=C(N)C(=O)c2[nH]c(=O)ccc21
- GI50 (LOX IMVI): 2 µM (inactive)
- GI50 (HCT-116): 1.1 µM (active)
- GI50 (SF-268): 2.04 µM (inactive)
- GI50 (A549): 2.48 µM (inactive)
- GI50 (OVCAR-3): 1.54 µM (inactive)
- GI50 (DU-145): 8.13 µM (inactive)
- GI50 (SR): 3.44 µM (inactive)
- GI50 (ACHN): 1.73 µM (inactive)
- GI50 (HCT-15): 2.06 µM
- GI50 (MOLT-4): 3.5 µM (inactive)
- GI50 (SK-MEL-2): 2.36 µM (inactive)
- GI50 (MDA-MB-435): 1.09 µM (active)
- GI50 (PC-3): 1.36 µM (inactive)
- GI50 (OVCAR-4): 1.38 µM (inactive)
- GI50 (IGROV-1): 1.96 µM (inactive)
- GI50 (OVCAR-5): 2.5 µM (inactive)
- GI50 (NCI-H226): 2.53 µM (inactive)
- GI50 (SF-539): 2.21 µM (inactive)
- GI50 (HOP-92): 2.11 µM (inactive)
- GI50 (HOP-62): 1.92 µM (inactive)

SMILES: CN(CCCCN1CCCC1)CCCCN(C)C(=O)Cc1ccc(Cl)c(Cl)c1
- GI50 (LOX IMVI): 10.6 µM (inactive)
- GI50 (HCT-116): 14.3 µM (inactive)
- GI50 (SF-268): 17.2 µM (inactive)
- GI50 (A549): 14.4 µM (inactive)
- GI50 (OVCAR-3): 18.2 µM (inactive)
- GI50 (DU-145): 25.2 µM (inactive)
- GI50 (SR): 2.59 µM (inactive)
- GI50 (ACHN): 20.7 µM (inactive)
- GI50 (HCT-15): 21.1 µM
- GI50 (MOLT-4): 4.54 µM (inactive)
- GI50 (SK-MEL-2): 6.07 µM (inactive)
- GI50 (MDA-MB-435): 2.26 µM (inactive)
- GI50 (PC-3): 16.8 µM (inactive)
- GI50 (OVCAR-4): 17.6 µM (inactive)
- GI50 (IGROV-1): 18.2 µM (inactive)
- GI50 (OVCAR-5): 21.9 µM (inactive)
- GI50 (NCI-H226): 23.7 µM (inactive)
- GI50 (SF-539): 9.29 µM (inactive)
- GI50 (HOP-92): 2.88 µM (inactive)
- GI50 (HOP-62): 16.3 µM (inactive)

SMILES: O=[N+]([O-])c1ccc2c(c1)Nc1c3ccccc3nc3cccc-2c13
- GI50 (LOX IMVI): 1.93 µM (inactive)
- GI50 (HCT-116): 5.38 µM (inactive)
- GI50 (SF-268): 8.61 µM (inactive)
- GI50 (A549): 2.16 µM (inactive)
- GI50 (OVCAR-3): 0.689 µM (active)
- GI50 (DU-145): 0.593 µM (active)
- GI50 (SR): 0.733 µM (active)
- GI50 (ACHN): 18.1 µM (inactive)
- GI50 (HCT-15): 3.56 µM
- GI50 (MOLT-4): 0.895 µM (active)
- GI50 (SK-MEL-2): 15 µM (inactive)
- GI50 (MDA-MB-435): 4.23 µM (inactive)
- GI50 (PC-3): 2.35 µM (inactive)
- GI50 (OVCAR-4): 1.43 µM (inactive)
- GI50 (IGROV-1): 1.47 µM (inactive)
- GI50 (OVCAR-5): 6.93 µM (inactive)
- GI50 (NCI-H226): 25.9 µM (inactive)
- GI50 (SF-539): 12.1 µM (inactive)
- GI50 (HOP-92): 4.73 µM (inactive)
- GI50 (HOP-62): 2.07 µM (inactive)
